According to patent US9457044B2, “Methods and compositions for wound healing” (CoDa Therapeutics, Inc., priority 2006, dated 2016):

Legend:
[1] = tested on: apoptotic cells; experiment: TUNEL staining of granulation tissue; assay type: in vivo, mice; details: 5, 7 and 10 days after wounding
Method: (§1) Male, 8 week old, ICR mice were used in the following experiments. All the mice were kept under specific pathogen-free conditions in an environmentally controlled clean room at University College London and all the experiments were carried out under UK Home Office regulations. Mice were anaesthetized by halothane inhalation. Four full-thickness excisional wounds of 6 mm diameter were made on the shaved back on either side of the dorsal midline with a 6 mm biopsy punch (Kai Industries). To each pair of wounds a single topical application of 50 μl of 1 μM Cx43 as ODN (SEQ. ID No. 2) (Sigma-Genosys) in 30% Pluronic F-127 gel (Sigma-Aldrich), chilled on ice, was made to one wound, and an identical application of 1 μM sense control sODNs was made to the other. […] R. and Becker, D. L. (2003). Targeting connexin 43 expression accelerates the rate of wound repair. Curr Biol 13, 1697-703). Each wound region was digitally photographed at the indicated time intervals, and the areas of the wounds were calculated. All wound areas were expressed as percentages of the initial wound areas. […]
Wound tissues were fixed in 4% formaldehyde buffered with PBS, and embedded in paraffin and sectioned. […] TUNEL stained section were imaged and positive cells were counted in the granulation tissue in three random fields, in the two sides and center of each wound (each field was 0.332 mm2).

[2] = tested on: Ccl2 mRNA; experiment: Real-Time PCR of Ccl2 at wound sites; assay type: in vivo, mice; details: day 2; P<0.05 versus control sODN
Method: as §1
(§2) Gene specific primers and probe were obtained as TaqMan® Gene Expression Assays (Applied Biosystems) for Cx43, Ccl2, Co1α1, TNFα and TGFβ1. […] Each sample was analyzed in duplicate. […]

[3] = tested on: Cx43 mRNA; experiment: Real-Time PCR of Cx43 mRNA at skin wound sites; assay type: in vivo, mice
Method: (§3) Male, 8 week old, ICR mice were used in the following experiments. All the mice were kept under specific pathogen-free conditions in an environmentally controlled clean room at University College London and all the experiments were carried out under UK Home Office regulations. Mice were anaesthetized by halothane inhalation. Four full-thickness excisional wounds of 6 mm diameter were made on the shaved back on either side of the dorsal midline with a 6 mm biopsy punch (Kai Industries). To each pair of wounds a single topical application of 50 μl of 1 μM Cx43 as ODN (SEQ. ID No. 2) (Sigma-Genosys) in 30% Pluronic F-127 gel (Sigma-Aldrich), chilled on ice, was made to one wound, and an identical application of 1 μM sense control sODNs was made to the other. […] R. and Becker, D. L. (2003). Targeting connexin 43 expression accelerates the rate of wound repair. Curr Biol 13, 1697-703). Each wound region was digitally photographed at the indicated time intervals, and the areas of the wounds were calculated. All wound areas were expressed as percentages of the initial wound areas. In some series of experiments, wounds and their surrounding area, including the scab and epithelial margins, were harvested with an 8 mm biopsy punch (Kai Industries) at the indicated time intervals after mice were killed with an overdose of chloroform. A minimum of eight mice were used for each time point examined.
Total RNA was extracted from skin wound samples using TRIzol Reagent (Invitrogen), according to the manufacturer's instructions. Ten micrograms of total RNA was reverse-transcribed into cDNA using the SuperScript First-Strand Synthesis System for RT-PCR (Invitrogen).
Gene specific primers and probe were obtained as TaqMan® Gene Expression Assays (Applied Biosystems) for Cx43, Ccl2, Co1α1, TNFα and TGFβ1. The enzyme and buffer system was purchased as TaqMan® Universal PCR Master Mix (Applied Biosystems). Each sample was analyzed in duplicate. Amplification and real-time detection was performed in the DNA Engine Opticon®2 (MJ Research Inc.). […]

[4] = tested on: collagen type 1α1; experiment: Real-Time PCR of Col1α1 at wound sites; design: species or system mice; details: mouse, in vivo
Method: as §1, §2

[5] = tested on: MPO-positive neutrophils; experiment: Neutrophil recruitment into wound site (anti-MPO staining); assay type: in vivo, mice; details: day 1 and 2, versus control
Method: as §1
A treatment-blinded observer counted MPO-positive neutrophils and F4/80-positive macrophages in the wound bed (defined as the area surrounded by unwounded skin, fascia, regenerated epidermis, and eschar) in 3 random high-power fields of 0.332 mm^2. […]

[6] = tested on: human limbal epithelial cells; experiment: Human limbal rim-denuded pig stromal matrix chimera re-epithelialisation; assay type: cell-based; details: treated at day one; controls 7 to 14 days
Method: Human limbal rims returned from surgery after excision of the central corneas for keratoplasty (transplant) were placed into air liquid interface organotypic culture and a denuded pig stromal extracellular matrix inserted into the central region (FIG. 14). The pig stromal matrix was denuded (cells removed) by freeze-thawing in liquid nitrogen.
The chimeras were grown for up to 2 weeks at which time the human limbal epithelial cells have re-epithelialised the pig stroma with a normal 5-7 cell layer fully differentiated epithelium. In addition, human limbal stromal keratocytes have proliferated and migrated across the limbal rim—stromal insert to repopulate the pig stromal matrix with human keratocytes.
In a further experiment the chimeras were treated with connexin 43 specific antisense ODNs at day one.

[7] = tested on: Cx43 protein; experiment: Cx43 protein levels / immunostaining at skin wound sites; assay type: in vivo, mice
Method: as §3
Immunostaining for connexin 43, blood vessels or a smooth muscle actin was carried out on cryostat sections of wounds. Sections were fixed in acetone at 4° C. for 5 minutes prior to blocking for 45 minutes. Incubation in primary antibody was for one hour at the following dilutions: rabbit anti-Cx43 (Sigma) 1:3,000; isoLectin B_FITC 1:2000; von Willebrand Factor (rabbit Dako) 1:400; anti-α smooth muscle actin (Sigma) 1:400 at room temperature. Sections were washed for 3×5 minutes in PBS before a one hour incubation in anti-rabbit-FITC secondary antibody (Dako) 1:200 at room temperature. Washing 3×5 minutes in PBS, in some cases with 1 μM bis-benzimide (Sigma) in the first wash as a nuclear counter stain, and mounted in Citifluor (Citifluor, London, UK). Sections were imaged by confocal microscopy with all parameters kept constant to allow direct comparison of digital images.

“GTAATTGCGGCAGGAGGAATTGTTTCTGTC (antisense GTAATTGCGGCAGGAGGAATTGTTTCTGTC; in Pluronic F-127 gel, further chemistry not given here) [Cx43 asODN]” was tested, and the “numbers of TUNEL positive cells, control versus treated” value [1] was “no significant differences”, the “expression level of Ccl2 mRNA” value [2] was “significantly reduced” and the “expression of Cx43 mRNA relative to GAPDH” value ([3]; 7 days after the injury) was 4.6 units. The “reduction of Cx43 mRNA versus control sODN-treated wounds” value ([3]; one day after injury, P<0.05) was 37%, the “expression of Cx43 mRNA relative to GAPDH” value ([3]; one day after injury, single topical 50 μl of 1 μM in 30% Pluronic F-127 gel) was 2.95 units and the “collagen type 1α1 in treated wounds” value [4] was “increased”. The “neutrophil numbers at wound site” value [5] was “significantly reduced”, the “time to full epithelial covering of the pig stroma” value [6] was no more than 3 days and the “Cx43 protein immunostaining in epidermis and dermis of wound edge” value ([7]; day 1, compared to controls) was “very low levels”. The “Cx43 protein immunostaining of wound” value ([7]; day 2) was “some Cx43 staining had returned to the dermis of the Cx43 asODN-treated wound but the level was still very low in the epidermis”, the “Cx43 staining, treated versus untreated” value ([7]; day 7) was “no obvious difference” and the “duration of Cx43 protein down-regulation in wound-site epidermis and dermis” value ([7]; delivered from Pluronic F-127 slow-release gel) was “at least 24 hours”. For the same sequence, the “protein levels of Cx43 in the epidermis and dermis” value ([7]; within two hours of treatment, delivery from the time of injury) was “markedly reduced”.
